Measurements: patent US9296776B2, “Substituted nucleoside derivatives with antiviral and antimicrobial properties” (Eastern Virginia Medical School, priority 2007, dated 2016)
In brackets after ≈: the same amount, converted by molar mass. Read-outs that look alike come from different tables or passages of the source.

Columns and labels:
[1] = test system: HIV-1 IIIB (cell-free virus); assay: microbe, parasite or virus in culture; format: cell-based; conditions: for IC50 Cell-Free Virus IIIB / IC50: Table 1; for IC50: read-out: IC50 Cell-Free Virus IIIB; for EC50 Cell-Free Virus IIIB: Table 4
[2] = Cytotoxicity (Tables 4, 6, 8)
[3] = test system: HIV-1 BaL (cell-free virus); assay: Single-round infection assay, cell-free virus BaL; format: cell-based; conditions: for IC50 Cell-Free Virus BaL / IC50: Table 1, 2 h incubation, wash, 48 h culture; for IC50: read-out: IC50 Cell-Free Virus BaL; for EC50 Cell-Free Virus BaL: Table 4
[4] = test system: Cell-associated HIV-1, SupT1 (IIIB); assay: Single-round infection assay, cell-associated virus SupT1 (IIIB); format: cell-based; conditions: for IC50 Cell-Associated Virus SupT1 (IIIB) / IC50: Table 1, 2 h incubation, wash, 48 h culture; for IC50: Human immunodeficiency virus 1, IIIB, SUP-T1, read-out: IC50 Cell-Associated Virus SupT1 (IIIB); for EC50 Cell-Associated Virus SupT1-IIIB: Table 4
[5] = test system: HIV-1 clinical isolate R5 = 92TH014; assay: Antiviral activity against HIV-1 clinical isolate R5, p24 level (ELISA); format: cell-based; conditions: Table 5, 6 h incubation then 6 days
[6] = test system: Multidrug resistant virus 7324-1; assay: Antiviral activity against multidrug resistant HIV-1 clinical isolate, p24 level (ELISA); format: cell-based; conditions: Table 5, MDR = 7324-1, 6 h incubation then 6 days
[7] = Table 8, 2 h incubation, wash, 48 h culture
[8] = Table 8, 2 h incubation, wash, 48 h culture, read-out: EC50 Cell-free HIV-1 (IIIB)
[9] = 2 h incubation, wash, 48 h culture
[10] = Human immunodeficiency virus 1, IIIB, 2 h incubation, wash, 48 h culture
[11] = Human immunodeficiency virus 1, BAL

For `CCCCCCCCCCCCCC(=O)OCC(NC(C)=O)C(=O)NCCC(=O)NC(CCC(=O)OC[C@H]1O[C@@H](n2cc(C)c(=O)[nH]c2=O)C[C@@H]1F)C(=O)NCC(=O)O` (some centres unmarked) [KPH-94, Myristoylserine-FLT(glutamyl)glycine], which “EC50 Cell-free HIV-1 (IIIB)” value [1, 7] is on record?
Its value is 9.3 µg/mL (≈ 11.1 µM).

What about the EC50 [1, 8] of the same molecule?
Its EC50 is 11.1 µM.

What about the CC50 [2] of the same molecule?
Its CC50 is greater than 100 µg/mL.

For `CCCCCCCCCCCCCC(=O)OCC(NC(C)=O)C(=O)NCCC(=O)NC(CCC(=O)OC[C@H]1O[C@@H](n2cc(C)c(=O)[nH]c2=O)C[C@@H]1N=[N+]=[N-])C(=O)NCC(=O)O` (some centres unmarked) [KPH-95, Myristoylserine-AZT(glutamyl)glycine], which “EC50 Cell-free HIV-1 (IIIB)” value [1, 7] is on record?
Its value is 54.5 µg/mL (≈ 63.1 µM).

And the EC50 [1, 8]?
Its EC50 is 63.1 µM.

And the CC50 [2]?
Its CC50 is greater than 100 µg/mL.

Which results are given for `[N-]=[N+]=NCCCCCCCCCCCC(=O)Nc1ccn(C2CSC(COC(=O)CCCCCCCCCCCN=[N+]=[N-])O2)c(=O)n1` (centres unmarked) [N4, 5′-O-di(12-azidodecanoyl)-2′,3′-dideoxy-3′-thiacytidine]?
IC50 Cell-Free Virus IIIB [1, 9]: >100 µg/mL; IC50 Cell-Free Virus BaL [3]: 49.1 µg/mL (≈ 72.6 µM); IC50 Cell-Associated Virus SupT1 (IIIB) [4]: >100 µg/mL

For `CCCCCCCCCCCCCC(=O)Nc1ccn([C@H]2CS[C@@H](COC(=O)CCCCCCCCCCCCC)O2)c(=O)n1` [N4, 5′-O-dimyristoyl-2′,3′-dideoxy-3′-thiacytidine], which IC50 [1, 10] is on record?
Its IC50 is greater than 100 µg/mL.

And the IC50 [3, 11]?
Its IC50 is 87.8 µg/mL (≈ 135 µM).

What about the IC50 [4] of the same molecule?
The IC50 was greater than 100 µg/mL.

Which results are given for `[N-]=[N+]=NCCCCCCCCCCCC(=O)Nc1ccn([C@H]2CS[C@@H](CO)O2)c(=O)n1` [N4-(12-azidodecanoyl)-2′,3′-dideoxy-3′-thiacytidine]?
IC50 Cell-Free Virus IIIB [1, 9]: 13.3 µg/mL (≈ 29.4 µM); IC50 Cell-Free Virus BaL [3]: 1.7 µg/mL (≈ 3.76 µM); IC50 Cell-Associated Virus SupT1 (IIIB) [4]: 6.6 µg/mL (≈ 14.6 µM)

With `CCSCCCCCCCCCCCC(=O)Nc1ccn([C@H]2CS[C@@H](CO)O2)c(=O)n1` [N4-(13-thiapentadecanoyl)-2′,3′-dideoxy-3′-thiacytidine] as the molecule, how does the IC50 [1, 10] read?
The IC50 was 2.5 µg/mL (≈ 5.3 µM).

And the IC50 [3, 11]?
Its IC50 is 0.2 µg/mL (≈ 0.424 µM).

What about the IC50 [4] of the same molecule?
The IC50 was greater than 100 µg/mL.

Which results are given for `CCCCCCCCCCCCCC(=O)Nc1ccn([C@H]2CS[C@@H](CO)O2)c(=O)n1` [N4-tetradecanoyl-2′,3′-dideoxy-3′-thiacytidine]?
IC50 [1, 10]: 4.8 µg/mL (≈ 10.9 µM); IC50 [3, 11]: 0.3 µg/mL (≈ 0.682 µM); IC50 [4]: 0.3 µg/mL (≈ 0.682 µM)

Which EC50 ([1]; Human immunodeficiency virus 1, IIIB, read-out: EC50 Cell-Free Virus IIIB) does the source give for `Cc1ccc(C(=O)Nc2ccc(S(=O)(=O)O)c3cc(S(=O)(=O)O)cc(S(=O)(=O)O)c23)cc1NC(=O)c1cccc(NC(=O)Nc2cccc(C(=O)Nc3cc(C(=O)Nc4ccc(S(=O)(=O)O)c5cc(S(=O)(=O)O)cc(S(=O)(=O)O)c45)ccc3C)c2)c1` [Suramin, reference compound] here?
Its EC50 is 49.1 µg/mL.

And the EC50 ([3]; Human immunodeficiency virus 1, BAL, Table 6)?
The EC50 was 1 µg/mL (≈ 0.771 µM).

What about the CC50 (in vitro) of the same molecule?
The CC50 was greater than 100 µg/mL.

Which results are given for “Sodium Cellulose Sulfate-Acetate-AZT (1.73%) [CS-Ac-AZT]”?
EC50 Cell-Free Virus IIIB [1]: 2.5 µg/mL; potency against cell-free virus relative to AZT, in moles ([1]; based on CS ~2×10^6 Daltons): 5 orders of magnitude; EC50 Cell-Free Virus BaL [3]: 8.1 µg/mL; EC50 Cell-Associated Virus SupT1-IIIB [4]: 5.6 µg/mL; IC50 [5]: 3.52 µg/mL; IC50 [6]: 4.22 µg/mL

For “Sodium Cellulose Sulfate-Acetate-FLT (1.45%) [CS-Ac-FLT]”, which “EC50 Cell-Free Virus IIIB” value [1] is on record?
Its value is 2.3 µg/mL.

What about the “EC50 Cell-Free Virus BaL” value [3] of the same molecule?
The value was 1.5 µg/mL.

And the “EC50 Cell-Associated Virus SupT1-IIIB” value [4]?
The value was 5.8 µg/mL.

What about the IC50 [5] of the same molecule?
The IC50 was 2.67 µg/mL.

And the IC50 [6]?
Its IC50 is 0.50 µg/mL.

Which “EC50 Cell-Free Virus IIIB” value [1] does the source give for “Sodium cellulose sulfate-succinate-AZT (17.2%) [CS-Suc-AZT]” here?
Its value is 2.2 µg/mL.

And the “EC50 Cell-Free Virus BaL” value [3]?
The value was 9.9 µg/mL.

What about the “EC50 Cell-Associated Virus SupT1-IIIB” value [4] of the same molecule?
The value was 74.8 µg/mL.
